These are literature values, as cited in US20180289421A1, “SYSTEMS AND METHODS FOR TREATING NAIL FUNGUS” (Terimber Corporation, priority 2017, published 2018).

The conditions of data set [1]: systemic antifungal therapy.
For data set [2], the system named is onychomycosis. As to conditions: oral, 12-week course.

Turning to `CN(C/C=C/C#CC(C)(C)C)Cc1cccc2ccccc12` [terbinafine, [(2E)-6,6-dimethylhept-2-en-4-yn-1-yl](methyl)(naphthalen-1-ylmethyl)amine], the liver toxicity result in data set [1] is “can elevate liver enzymes and has progressed to fulminant liver failure”. Also, in data set [2], the “maximal clinical response rate” value was 60%-70% and the mycologic cure rate is listed as 71%-82%.
On to `CCC(C)n1ncn(-c2ccc(N3CCN(c4ccc(OCC5COC(Cn6cncn6)(c6ccc(Cl)cc6Cl)O5)cc4)CC3)cc2)c1=O` (stereo not shown) [Itraconazole], for which the cardiac toxicity result in data set [1] was “may induce cardiac toxicity”.
